Test results published in US8501940B2, “Tetrahydrocinnoline derivatives” (Hoffmann-La Roche Inc., priority 2008, dated 2013).

Biological target: T1, human 11beta-HSD1 (Homo sapiens, UniProt P28845)
T1 construct: made in house; host or cells: HEK293 cells (ATCC CRL-1573), transient transfection with a pcDNA3 construct; microsomal fraction used
Experiment: Microsome assay (cortisone to cortisol conversion, ELISA detection)
Assay type: biochemical
Conditions: microsomes from HEK293 cells transiently expressing human 11beta-HSD1; Cortisone 50-200 nM, NADPH 1 mM; 60 min at 37° C.; cortisol by ELISA; read-out: h 11-beta-HSD 1 IC50
Description: The cDNA encoding the human 11beta-HSD1 protein was cloned into the expression vector pcDNA3 (Stratagene). This construct (for details see Alex Odermatt et al.; J Biol Chem., 1999, Vol. 274, Issue 40, 28762-28770) was used to transiently express the protein in HEK293 cells (ATCC number: CRL-1573, described in Graham, F. L., Smiley, J., Russell, W. C., Nairn, R.; (1977)) using lipofectamine. 48 h after transfection cells were washed twice with ice-cold PBS (Phosphate buffered Saline). To 1 volume of cell suspension in PBS 2 volumes of ice-cold lysis buffer (50 mM Tris; pH7.5; 1 mM EDTA; 100 mM NaCl) were added. The cells were lysed by Potter-homogenization (20 strokes). The resulting homogenate was sonicated with a tip sonicator (10% output; 2×30 sec.) and cleared by a low speed centrifugation (10 min×9000 g; 4° C.). The microsomal fraction was collected by a high speed centrifugation (60 min×110,000 g). The resulting pellet was resuspended in storage buffer (20 mM Tris pH 7.5; 1 mM EDTA; 10% Glycerol) and the centrifugation was repeated. The resulting pellet containing the microsomal fraction was again taken up into storage buffer and aliquots were kept frozen in liquid Nitrogen until use.
Microsomes isolated from HEK293 cells transiently expressing human 11beta-HSD1 (for details see above) were incubated in assay buffer (100 mM NaCl; 1 mM EDTA; 1 mM EGTA; 1 mM MgCl; 250 mM Sucrose; 20 mM Tris pH 7.4; Cortisone 50-200 nM and NADPH 1 mM) together with different concentrations of test substances. After 60 min. of incubation at 37° C. the assay was stopped by heating to 80° C. (5 min.) and by addition of the inhibitor Carbenoxolone (1 uM). The amount of Cortisol produced in this assay was determined using a commercially available, ELISA-based Cortisol-detection kit (Distributed by Assay Design, Inc.). Inhibitors were characterized by there IC50 values, e.g. the concentration at which the production of cortisol was 50% reduced.

T1 sequence (P28845 whole entry): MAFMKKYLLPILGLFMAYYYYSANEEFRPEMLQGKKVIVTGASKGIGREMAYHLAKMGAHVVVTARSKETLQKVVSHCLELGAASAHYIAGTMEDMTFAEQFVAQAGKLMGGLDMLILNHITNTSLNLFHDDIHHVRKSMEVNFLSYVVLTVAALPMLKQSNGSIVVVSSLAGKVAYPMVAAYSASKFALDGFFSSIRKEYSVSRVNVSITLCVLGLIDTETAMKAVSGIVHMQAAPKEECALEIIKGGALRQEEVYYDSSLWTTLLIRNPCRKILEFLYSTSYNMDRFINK

Compound | IC50 [pM]
CC1(Cc2cc3c(nn2)[C@H]2CC[C@@H]3C2)CC1 (racemic) [Example 18, (5RS,8SR)-3-[(1-methylcyclopropyl)methyl]-5,6,7,8-tetrahydro-5,8-methanocinnoline] | 37
CC(C)(C)Cc1cc2c(nn1)C1CCC2C12CC2 (single isomer, unassigned) [Example 1b, (5′S,8′R)-3′-(2,2-dimethylpropyl)-5′,6′,7′,8′-tetrahydrospiro[cyclopropane-1,9′-[1′,2′]diaza[5′,8′]methanocinnoline]] | 1
CC(C)(C)c1cc2c(nn1)C1CCC2C12CC2 (single isomer, unassigned) [Example 2a, (5′R,8′S)-3′-tert-butyl-5′,6′,7′,8′-tetrahydrospiro[cyclopropane-1,9′-[1′,2′]diaza[5′,8′]methanocinnoline]] | 11
CC(C)(C)Cc1cc2c(nn1)[C@H]1CC[C@@H]2C12CC2 [Example 1a, (5′R,8′S)-3′-(2,2-dimethylpropyl)-5′,6′,7′,8′-tetrahydrospiro[cyclopropane-1,9′-[1′,2′]diaza[5′,8′]methanocinnoline]] | 4
CC(C)(C)c1cc2c(nn1)C1CCC2C12CC2 (stereo not drawn) [Example 2, (5′RS,8′SR)-3′-tert-butyl-5′,6′,7′,8′-tetrahydrospiro[cyclopropane-1,9′-[1′,2′]diaza[5′,8′]methanocinnoline]] | 20
CC1(Cc2cc3c(nn2)C2CCC3C23CC3)CC1 (stereo not drawn) [Example 3, (5′RS,8′SR)-3′-[(1-methylcyclopropyl)methyl]-5′,6′,7′,8′-tetrahydrospiro[cyclopropane-1,9′-[1′,2′]diaza[5′,8′]methanocinnoline]] | 6
CC1(c2cc3c(nn2)C2CCC3C23CC3)CC1 (stereo not drawn) [Example 4, (5′RS,8′SR)-3′-(1-methylcyclopropyl)-5′,6′,7′,8′-tetrahydrospiro[cyclopropane-1,9′-[1′,2′]diaza[5′,8′]methanocinnoline]] | 58
c1c(C2CC2)nnc2c1C1CCC2C12CC2 (stereo not drawn) [Example 5, (5′RS,8′SR)-3′-cyclopropyl-5′,6′,7′,8′-tetrahydrospiro[cyclopropane-1,9′-[1′,2′]diaza[5′,8′]methanocinnoline]] | 603
c1c(C2CC2)nnc2c1[C@H]1CC[C@@H]2C12CC2 [Example 5b, (5′S,8′R)-3′-cyclopropyl-5′,6′,7′,8′-tetrahydrospiro[cyclopropane-1,9′-[1′,2′]diaza[5′,8′]methanocinnoline]] | 382
CC(C)(C)c1cc2c(nn1)C1CCC2CC1 [Example 10, 3-Tert-butyl-5,6,7,8-tetrahydro-5,8-ethanocinnoline] | 2
CC1(Cc2cc3c(nn2)C2CCC3C23CCCC3)CC1 (stereo not drawn) [Example 12, (5′RS,8′SR)-3′-[(1-methylcyclopropyl)methyl]-5′,6′,7′,8′-tetrahydrospiro[cyclopentane-1,9′-[1′,2′]diaza[5′,8′]methanocinnoline]] | 1
CC(C)(C)Cc1cc2c(nn1)C1CCC2C12CCCC2 (stereo not drawn) [Example 13, (5′RS,8′SR)-3′-(2,2-dimethylpropyl)-5′,6′,7′,8′-tetrahydrospiro[cyclopentane-1,9′-[1′,2′]diaza[5′,8′]methanocinnoline]] | 1
CC(C)(C)c1cc2c(nn1)C1CCC2C12CCCC2 (stereo not drawn) [Example 14, (5′RS,8′SR)-3′-tert-butyl-5′,6′,7′,8′-tetrahydrospiro[cyclopentane-1,9′-[1′,2′]diaza[5′,8′]methanocinnoline]] | 2
CC1(Cc2cc3c(nn2)[C@@]2(C)CC[C@@H]3C2(C)C)CC1 [Example 17, (5R,8S)-8,9,9-trimethyl-3-[(1-methylcyclopropyl)methyl]-5,6,7,8-tetrahydro-5,8-methanocinnoline] | 1
Fc1ccc(-c2cc3c(nn2)C2CCC3C23CC3)c(C(F)(F)F)c1 (stereo not drawn) [Example 19, (5′RS,8′SR)-3′-[4-fluoro-2-(trifluoromethyl)phenyl]-5′,6′,7′,8′-tetrahydrospiro[cyclopropane-1,9′-[1′,2′]diaza[5′,8′]methanocinnoline]] | 2
Fc1ccc(-c2cc3c(nn2)C2CCC3C23CC3)c(Cl)c1 (stereo not drawn) [Example 21, (5′RS,8′SR)-3′-(2-chloro-4-fluorophenyl)-5′,6′,7′,8′-tetrahydrospiro[cyclopropane-1,9′-[1′,2′]diaza[5′,8′]methanocinnoline]] | 7
FC(F)(F)c1ccccc1-c1cc2c(nn1)C1CCC2C12CC2 (stereo not drawn) [Example 22, (5′RS,8′SR)-3′-[2-(trifluoromethyl)phenyl]-5′,6′,7′,8′-tetrahydrospiro[cyclopropane-1,9′-[1′,2′]diaza[5′,8′]methanocinnoline]] | 1

The remaining molecules from weak to strong by IC50, led by results:

IC50 [pM] | Compound
566 | c1c(C2CC2)nnc2c1C1CCC2C12CC2 (single isomer, unassigned) [Example 5a, (5′R,8′S)-3′-cyclopropyl-5′,6′,7′,8′-tetrahydrospiro[cyclopropane-1,9′-[1′,2′]diaza[5′,8′]methanocinnoline]]
89 | Cc1c(-c2cc3c(nn2)C2CCC3C23CC3)cnn1-c1ccccc1 (stereo not drawn) [Example 20, (5′RS,8′SR)-3′-(5-methyl-1-phenyl-1H-pyrazol-4-yl)-5′,6′,7′,8′-tetrahydrospiro[cyclopropane-1,9′-[1′,2′]diaza[5′,8′]methanocinnoline]]
47 | c1c(C2CC2)nnc2c1C1CCC2CC1 [Example 7, 3-Cyclopropyl-5,6,7,8-tetrahydro-5,8-ethanocinnoline]
35 | Cc1c(C2CC2)nnc2c1C1CCC2C12CC2 (stereo not drawn) [Example 6, (5′RS,8′SR)-3′-cyclopropyl-4′-methyl-5′,6′,7′,8′-tetrahydrospiro[cyclopropane-1,9′-[1′,2′]diaza[5′,8′]methanocinnoline]]
13 | CC(C)(C)c1cc2c(nn1)C1CCC2C12CC2 (single isomer, unassigned) [Example 2b, (5′S,8′R)-3′-tert-butyl-5′,6′,7′,8′-tetrahydrospiro[cyclopropane-1,9′-[1′,2′]diaza[5′,8′]methanocinnoline]]
13 | c1c(C2CC2)nnc2c1C1CCC2C12CCCC2 (stereo not drawn) [Example 15, (5′RS,8′SR)-3′-cyclopropyl-5′,6′,7′,8′-tetrahydrospiro[cyclopentane-1,9′-[1′,2′]diaza[5′,8′]methanocinnoline]]
6 | CC1(Cc2cc3c(nn2)C2CCC3CC2)CC1 [Example 8, 3-[(1-Methylcyclopropyl)methyl]-5,6,7,8-tetrahydro-5,8-ethanocinnoline]
3 | CC(C)(C)Cc1cc2c(nn1)C1CCC2C12CC2 (stereo not drawn) [Example 1, (5′RS,8′SR)-3′-(2,2-dimethylpropyl)-5′,6′,7′,8′-tetrahydrospiro[cyclopropane-1,9′-[1′,2′]diaza[5′,8′]methanocinnoline]]
2 | CC1(c2cc3c(nn2)C2CCC3C23CCCC3)CC1 (stereo not drawn) [Example 11, (5′RS,8′SR)-3′-(1-methylcyclopropyl)-5′,6′,7′,8′-tetrahydrospiro[cyclopentane-1,9′-[1′,2′]diaza[5′,8′]methanocinnoline]]
1 | CC1(Cc2cc3c(nn2)[C@H]2CC[C@@H]3C2(C)C)CC1 (racemic) [Example 16, (5RS,8SR)-9,9-dimethyl-3-[(1-methylcyclopropyl)methyl]-5,6,7,8-tetrahydro-5,8-methanocinnoline]
1 | CC(C)(C)Cc1cc2c(nn1)C1CCC2CC1 [Example 9, 3-(2,2-Dimethylpropyl)-5,6,7,8-tetrahydro-5,8-ethanocinnoline]
